In patent US20120101099A1, “HISTONE DEACETYLASE INHIBITORS” (ANTHEM BIOSCIENCES PRIVATE LIMITED, priority 2009, published 2012):
Where a name gives a salt, the structure may show the parent alone.

Legend:
[1] = system: HT-29; assay: Cell proliferation assay (MTT); type: cell-based; settings: Homo sapiens, HT-29; Table 1; MTT, 48 hours; read-out: Cell growth inhibition (GI50 in μM) HT-29
Description: (§1) Cells were seeded in a 96-well cell culture plates at a concentration of 10,000 cells per well and incubated at 37° C. in CO2 incubator.
(§2) Twenty-four hours later cells were treated with different concentrations (100, 10, 1, 0.1, and 0.01 μM) of compound dissolved in DMSO and incubated for 48 hours. For To measurement, 24 hours after seeding the cells, 20 μL of 3-(4.5-dimethyl-2- thiazolyl)-2,5-diphenyl-2H-tetrazolium (MTT) solution per well was added to the T0 plate and incubated for 3 hours at 37° C. in a CO2 incubator.
(§3) The plate containing cells and test compounds was treated similarly after 48 hours of incubation. After 3 hours of MTT addition, well contents were aspirated carefully followed by addition of 100 μL DMSO per well. Plates were agitated to ensure dissolution of the formazan crystals in DMSO and absorbance was read at 570 nm (A570). […] From the percentage growths a dose response curve was generated and GI50 values were interpolated from the growth curves.

[2] = system: NCI-H460; assay: Cell proliferation assay (MTT); type: cell-based; settings: Homo sapiens, Table 1, MTT, 48 hours, read-out: Cell growth inhibition (GI50 in μM) NCI H460
Description: as §1, §2, §3

[3] = system: PC-3; assay: Cell proliferation assay (MTT); type: cell-based; settings: Homo sapiens, PC-3; Table 1; MTT, 48 hours; read-out: Cell growth inhibition (GI50 in μM) PC-3
Description: as §1, §2, §3

[4] = system: human HDAC (Hela cells nuclear extract); assay: HDAC activity screening, Hela nuclear extract, Boc-Lys(Ac)-AMC substrate; type: biochemical; settings: Hela nuclear extract; for HDAC % Inhibition (1 μM): 1 μM compound; for HDAC % Inhibition (10 μM): 10 μM compound; for IC50: read-out: IC50 (50% HDAC inhibitory concentration), Table 2
Description: To study the human HDAC inhibition the in-house 96 well plate assay have been established using fluorescent substrate (Boc-Lys (Ac)-AMC Substrate). Hela cells nuclear extract have been used as enzyme source.
Assay was performed in 96-well black microplate and total volume of the assay was 100 μL. Hela nuclear extract was diluted HDAC assay buffer (final concentration of 3.0 μg/mL). Enzyme mixture was made of 10 μL of diluted enzyme and 30 μL of HDAC buffer. 40 μl of enzyme mixture followed by 10 μL of test compound (final concentration from 0.01 to 10 μM) or vehicle (control) was added to each well. The plate was pre-incubated at 37° C. for 10 minutes. The HDAC reaction was started by adding 50 μl of HDAC substrate Boc-Lys (Ac)-AMC (Anaspec, Inc Fremont, Calif., USA). The plate was incubated at 37° C. for 45 minutes. The reaction was stopped by adding 50 μL of Trypsin stop solution and plate further incubated at 37° C. for 15 minutes. Measuring the fluorescence at excitation wavelength of 360 nm and emission wavelength of 460 nm monitored the release of AMC. Buffer alone and substrate alone served as blank.

[5] = system: PA-1; assay: Cell proliferation assay (MTT); type: cell-based; settings: Homo sapiens, Table 1, MTT, 48 hours, read-out: Cell growth inhibition (GI50 in μM) PA-1
Description: as §1, §2, §3

[6] = system: A549; assay: Cell proliferation assay (MTT); type: cell-based; settings: Homo sapiens, A549; Table 1; MTT, 48 hours; read-out: Cell growth inhibition (GI50 in μM) A549
Description: as §1, §2, §3

O=C(NO)c1ccc(Cn2cc(-c3ccc(F)cc3)nn2)cc1 [Example 3, 4-[4-(4-Fluoro-phenyl)-[1,2,3]triazol-1-ylmethyl]-N-hydroxy-benzamide]
GI50 [1]: 5.2 ± 3.5 µM
GI50 [2]: 6.5 ± 4.2 µM
GI50 [3]: 3.4 ± 0.4 µM
HDAC % Inhibition (1 μM) [4]: 84%
HDAC % Inhibition (10 μM) [4]: 96%

CN(C)c1ccc(-c2cn(CS(=O)(=O)NCc3ccc(C(=O)NO)cc3)nn2)cc1 [Example 31, 4-{[4-(4-Dimethylamino-phenyl)-[1,2,3]triazol-1-ylmethanesulfonylamino]-methyl}-N-hydroxy-benzamide]
HDAC % Inhibition (1 μM) [4]: 85%
HDAC % Inhibition (10 μM) [4]: 97%

O=C(NO)c1ccc(Cn2cc(-c3ccc(CCN4CCOCC4)cc3)nn2)cc1 [Example 12, N-Hydroxy-4-{4-[4-(2-morpholin-4-yl-ethyl)-phenyl]-[1,2,3]triazol-1-ylmethyl}-benzamide]
IC50 [4]: 12.8 nM

O=C(NO)c1ccc(Cn2cc(-c3ccccc3F)nn2)cc1 [Example 4, 4-[4-(2-Fluoro-phenyl)-[1,2,3]triazol-1-ylmethyl]-N-hydroxy-benzamide]
GI50 [1]: 2.4 ± 0.5 µM
GI50 [2]: 3.2 ± 1.1 µM
GI50 [3]: 4.6 ± 1.6 µM
HDAC % Inhibition (1 μM) [4]: 88%
HDAC % Inhibition (10 μM) [4]: 94%

O=C(NO)c1ccc(Cn2cc(-c3ccc(CN4CCCC4)cc3F)nn2)cc1 [Example 14, 4-[4-(2-Fluoro-4-pyrrolidin-l-ylmethyl-phenyl)-[1,2,3]triazol-1-ylmethyl]-N-hydroxy-benzamide]
IC50 [4]: 13.4 nM

O=C(NO)c1ccc(Cn2cc(-c3ccc(CN4CCOCC4)cc3F)nn2)cc1 [Example 15, 4-[4-(2-Fluoro-4-morpholin-4-ylmethyl-phenyl)-[1,2,3]triazol-1-ylmethyl]-N-hydroxy-benzamide]
IC50 [4]: 7.33 nM

O=C(NO)c1ccc(Cn2cc(-c3ccccc3)nn2)cc1 [Example 2, N-Hydroxy-4-(4-phenyl-[1,2,3]triazol-1-ylmethyl)-benzamide]
GI50 [1]: 1.9 ± 1.8 µM
GI50 [2]: 2.6 ± 2 µM
GI50 [5]: 0.11 µM
GI50 [3]: 1.7 ± 1.1 µM
HDAC % Inhibition (1 μM) [4]: 98%
HDAC % Inhibition (10 μM) [4]: 100%

O=C(/C=C/c1cccc(Cn2cc(-c3ccc(CN4CCCC4)cc3)nn2)c1)NO [Example 26, N-Hydroxy-3-{3-[4-(4-pyrrolidin-1-ylmethyl-phenyl)-[1,2,3]triazol-1-ylmethyl]-phenyl}-acrylamide hydrochloride]
GI50 [6]: 0.9 ± 0.3 µM
GI50 [5]: 0.03 µM
GI50 [3]: 9.4 ± 6.2 µM
HDAC % Inhibition (1 μM) [4]: 99%
HDAC % Inhibition (10 μM) [4]: 99%
IC50 [4]: 1 nM

O=C(/C=C/c1ccc(Cn2cc(-c3ccccc3)nn2)cc1)NO [Example 19]
GI50 [1]: 0.2 µM
GI50 [2]: 3.38 µM
HDAC % Inhibition (1 μM) [4]: 98%
HDAC % Inhibition (10 μM) [4]: 101%

CN(C)Cc1ccc(-c2cn(Cc3ccc(C(=O)NO)cc3)nn2)cc1 [Example 10, 4-[4-(4-Dimethylaminomethyl-phenyl)-[1,2,3]triazol-1-ylmethyl]-N-hydroxy-benzamide]
GI50 [6]: 3.2 ± 1.4 µM
GI50 [5]: 0.1 ± 0.02 µM
GI50 [3]: 18.5 ± 10.2 µM
HDAC % Inhibition (1 μM) [4]: 96%
HDAC % Inhibition (10 μM) [4]: 100%
IC50 [4]: 25 nM

CN(C)c1ccc(-c2cn(Cc3ccc(/C=C/C(=O)NO)cc3)nn2)cc1 [Example 17]
GI50 [1]: 0.38 ± 0.12 µM
GI50 [2]: 7.06 ± 6.98 µM
GI50 [3]: 4.4 µM
HDAC % Inhibition (1 μM) [4]: 93%
HDAC % Inhibition (10 μM) [4]: 99%

O=C(/C=C/c1cccc(Cn2cc(-c3cccnc3)nn2)c1)NO [Example 24, N-Hydroxy-3-[3-(4-pyridin-3-yl-[1,2,3]triazol-1-ylmethyl)-phenyl]-acrylamide]
GI50 [1]: 0.48 µM
GI50 [2]: 10.7 µM
HDAC % Inhibition (1 μM) [4]: 96%
HDAC % Inhibition (10 μM) [4]: 101%

O=C(NO)c1ccc(CNS(=O)(=O)Cn2cc(-c3ccc(F)cc3)nn2)cc1 [Example 29, 4-{[4-(4-Fluoro-phenyl)-[1,2,3]triazol-1-ylmethanesulfonylamino)-methyl}-N-hydroxy-benzamide]
HDAC % Inhibition (1 μM) [4]: 87%
HDAC % Inhibition (10 μM) [4]: 98%

O=C(NO)c1ccc(CNS(=O)(=O)Cn2cc(-c3ccccc3F)nn2)cc1 [Example 30, 4-{[4-(2-Fluoro-phenyl)-[1,2,3]triazol-1-ylmethanesulfonylamino]-methyl}-N-hydroxy-benzamide]
HDAC % Inhibition (1 μM) [4]: 92%
HDAC % Inhibition (10 μM) [4]: 99%

CN(C)c1ccc(-c2cn(Cc3cccc(/C=C/C(=O)NO)c3)nn2)cc1 [Example 23, (E)-3-{3-[4-(4-Dimethylamino-phenyl)-[1,2,3]triazol-1-ylmethyl]-phenyl}-N-hydroxy-acrylamide]
GI50 [1]: 0.2 µM
GI50 [2]: 0.3 µM
GI50 [3]: 12.2 µM
HDAC % Inhibition (1 μM) [4]: 96%
HDAC % Inhibition (10 μM) [4]: 99%

O=C(NO)c1ccc(CNS(=O)(=O)Cn2cc(-c3ccccc3)nn2)cc1 [Example 34]
GI50 [1]: 23.8 µM
GI50 [2]: 19.9 µM
GI50 [3]: 23.3 µM
HDAC % Inhibition (1 μM) [4]: 91%
HDAC % Inhibition (10 μM) [4]: 99%

O=C(/C=C/c1cccc(Cn2cc(-c3ccccc3)nn2)c1)NO [Example 22, (E)-N-Hydroxy-3-[3-(4-phenyl-[1,2, 3]triazol-1-ylmethyl)-phenyl]-acrylamide]
GI50 [1]: 0.5 ± 0.4 µM
GI50 [2]: 0.1 ± 0.2 µM
GI50 [5]: 0.01 µM
GI50 [3]: 0.6 ± 0.6 µM
HDAC % Inhibition (1 μM) [4]: 92%
HDAC % Inhibition (10 μM) [4]: 96%

O=C(/C=C/c1cccc(CNS(=O)(=O)Cn2cc(-c3ccccc3)nn2)c1)NO [Example 35, N-Hydroxy-3-{3-[(4-phenyl-[1,2,3]triazol-1-ylmethanesulfonylamino)-methyl]-phenyl}-acrylamide]
GI50 [1]: 19.3 µM
GI50 [2]: 20.4 µM
GI50 [3]: 47.7 µM
HDAC % Inhibition (1 μM) [4]: 67%
HDAC % Inhibition (10 μM) [4]: 92%

Cc1ccc(-c2cn(CS(=O)(=O)NCc3ccc(C(=O)NO)cc3)nn2)cc1 [Example 28]
HDAC % Inhibition (1 μM) [4]: 84%
HDAC % Inhibition (10 μM) [4]: 96%

O=C(/C=C/c1ccc(Cn2cc(-c3ccc(F)cc3)nn2)cc1)NO [Example 18]
GI50 [1]: > 100 µM
GI50 [2]: 2.21 µM
HDAC % Inhibition (1 μM) [4]: 98%
HDAC % Inhibition (10 μM) [4]: 100%

COc1ccc(-c2cn(CS(=O)(=O)NCc3ccc(C(=O)NO)cc3)nn2)cc1 [Example 32, N-Hydroxy-4-{[4-(4-methoxy-phenyl)-[1,2,3]triazol-1-ylmethanesulfonylamino]-methyl}-benzamide]
HDAC % Inhibition (1 μM) [4]: 79%
HDAC % Inhibition (10 μM) [4]: 91%

O=C(NO)c1ccc(Cn2cc(-c3cccnc3)nn2)cc1 [Example 5, N-Hydroxy-4-(4-pyridin-3-yl-[1,2,3]triazol-1-ylmethyl)-benzamide]
GI50 [1]: 13.3 ± 2.9 µM
GI50 [2]: 19 ± 1 µM
GI50 [3]: 9.2 ± 9.5 µM
HDAC % Inhibition (1 μM) [4]: 68%
HDAC % Inhibition (10 μM) [4]: 88%

CN(C)c1ccc(-c2cn(Cc3ccc(C(=O)NO)cc3)nn2)cc1 [Example 1]
GI50 [1]: 0.9 ± 0.8 µM
GI50 [2]: 1 ± 0.2 µM
GI50 [5]: 0.01 µM
GI50 [3]: 2.4 ± 2.5 µM
HDAC % Inhibition (1 μM) [4]: 92%
HDAC % Inhibition (10 μM) [4]: 94%

O=C(NO)c1ccc(Cn2cc(-c3ccc(-c4ccccc4)cc3)nn2)cc1 [Example 6, 4-(4-Biphenyl-4-yl-[1,2,3]triazol-1-ylmethyl)-N-hydroxy-benzamide]
GI50 [1]: 16.3 µM
GI50 [2]: > 100 µM
GI50 [3]: > 100 µM
HDAC % Inhibition (1 μM) [4]: 75%
HDAC % Inhibition (10 μM) [4]: 87%

O=C(NO)c1ccc(CNS(=O)(=O)Cn2cc(-c3cccnc3)nn2)cc1 [Example 33, N-Hydroxy-4-[(4-pyridin-3-yl-[1,2,3]triazol-1-ylmethanesulfonylamino)-methyl]-benzamide]
HDAC % Inhibition (1 μM) [4]: 63%
HDAC % Inhibition (10 μM) [4]: 92%

COc1ccc(-c2cn(Cc3ccc(C(=O)NO)cc3)nn2)cc1 [Example 7, N-Hydroxy-4-[4-(4-methoxy-phenyl)-[1,2,3]triazol-1-ylmethyl]-benzamide]
GI50 [1]: 1.4 ± 0.5 µM
GI50 [2]: 3.1 ± 1.7 µM
GI50 [3]: 2.6 ± 1.2 µM
HDAC % Inhibition (1 μM) [4]: 90%
HDAC % Inhibition (10 μM) [4]: 94%
